Consider 2 compounds from patent US7741521B2, “Inhibition of bid-induced cell-death using small organic molecules” (The Burnham Institute, priority 2004, dated 2010).

“Also recorded” adds a separate entry of the source.

Experiment [1] concerns the target T1, tBID (Mus musculus, UniProt P70444).
T1 construct: tBID was produced by cleavage of purified BID with caspase-8, as known in the art; made in house; host or cells: E. coli BL21 (BID), then cleaved in vitro with caspase-8
T1 sequence (P70444 60-195 limits assumed): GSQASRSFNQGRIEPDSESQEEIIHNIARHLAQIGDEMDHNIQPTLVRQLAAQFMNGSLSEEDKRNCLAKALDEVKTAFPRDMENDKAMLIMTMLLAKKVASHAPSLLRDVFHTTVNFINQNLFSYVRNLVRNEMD
T1 sequence (P70444 1-59 partner limits assumed): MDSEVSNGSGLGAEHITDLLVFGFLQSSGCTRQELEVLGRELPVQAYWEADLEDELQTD
The experiment in a line: tBID-induced Smac release from isolated mitochondria. Format: biochemical. Particulars: for tBID-induced Smac release from mitochondria isolated from HeLa cells: 50 ng tBid. On the procedure: 100 ng of tBID (cleaved by caspase 8) was pre-incubated with various concentrations of compounds for 15 minutes at 30° C. in HM buffer (10 mM Hepes, pH 7.4, 250 mM Mannitol, 10 mM KCl, 1.5 mM MgCl, 1 mM DTT, 1 mM EGTA), then 50 μg of isolated mitochondria from HCT116 cells were added to a final volume of 50 μl in HM buffer. After 1 hour incubation at 30° C., the samples were centrifuged at 10,000×g for 5 minutes at 4° C. and the supernatant was analyzed by SDS-PAGE/immunoblotting using anti-SMAC antibody.
Compounds II-IX were tested in vitro for their ability to inhibit BID-mediated release of Smac using mitochondria isolated from HeLa cells (FIG. 6A). The first lane represents mitochondria incubated without tBID. All others received 100 ng tBID without or with compounds. Each compound was tested at a concentration of 50 μM. […] To preliminarily investigate the mechanism by which compound II reduces Smac-release from isolated mitochondria, the tBID protein was treated with different concentrations of BI-6C9, after which it was incubated with mitochondria, followed by analysis of the bound and unbound fractions by immunoblotting using BID antibody. The concentration of mitochondria-bound tBID diminished in response to increasing concentrations of compound II.
About 50 ng of tBID cleaved by […] was pre-incubated for about 15 minutes at about 30° C. with various concentrations of compounds I, II, and X. Then, about 50 μg of isolated mitochondria from Hela cells were added to the reaction system. After about 1 hour of incubation at about 30° C., the samples were centrifuged at 10,000×g for about 5 minutes at about 4° C., and the supernatant was analyzed by SDS-PAGE/immunoblotting using Smac antibody. The results of the analysis are presented on FIG. 8. As shown by FIG. 9, compound I is a strong binder for BID.
Some results of comparative studies of compounds I and II are shown on FIG. 10. […] The first lane represents mitochondria incubated without tBID. All others received 50 ng tBid without or with bi-dentate compound.

The target of the next experiment is BCL-XL (Homo sapiens, UniProt Q07817). Kind of experiment: NMR-binding assay against BCL-XL.
Sequence of BCL-XL (Q07817 whole entry, species assumed): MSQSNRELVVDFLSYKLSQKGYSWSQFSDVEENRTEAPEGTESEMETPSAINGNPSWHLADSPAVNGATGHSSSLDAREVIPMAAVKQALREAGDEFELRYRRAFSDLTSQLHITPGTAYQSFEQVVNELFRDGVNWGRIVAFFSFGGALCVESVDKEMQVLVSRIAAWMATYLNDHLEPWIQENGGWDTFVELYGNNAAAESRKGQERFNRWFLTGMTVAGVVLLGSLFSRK
Experiment [2] addresses T1, tBID. The experiment in a line: NMR chemical shift mapping with tBID (BID cleaved with caspase-8). Format: binding. Particulars: 15N-BID after cleavage with caspase-8. On the procedure:
Recombinant full length mouse BID was produced from a pET-19b (Novagen) plasmid construct containing the entire nucleotide sequence for BID fused to an N-terminal poly-His tag. Unlabeled BID was expressed in E. coli BL21 in LB media at 37° C., with an induction period of 3-4 hours with 1 mM IPTG. ^15N-labeled BID was similarly produced, with growth occurring in M9 media supplemented with 0.5 g/L ^15NH4Cl. ε-^13C-Met labeled BID was produced in M9 media supplemented with 50 mg/L of ε-^13C-Met at time of induction with IPTG. Following cell lysis, soluble BID was purified over a Hi-Trap chelating column (Amersham, Pharmacia), followed by ion-exchange purification with a MonoQ (Amersham, Pharmacia) column. Final BID samples were dialyzed into a buffer appropriate for the subsequent experiments. tBID was produced by cleavage of purified BID with caspase-8, as known in the art.
For all NMR experiments, BID was exchanged into 50 mM phosphate buffer at pH 7.5 and measurements were performed at 30° C. 2D [^15N,^1H]-TROSY spectra for BID were measured with 0.5 mM samples of ^15N-labeled BID. 2D [^13C,^1H]-HSQC spectra were measured with 0.2 mM samples of ε-^13C-Met labeled BID. 2D [^1H,^1H]-NOESY spectra were acquired with small molecules at a concentration of 0.9 mM in the presence of 10 μM BID. […]

As to `COc1ccc(S(=O)(=O)NCCCC(=O)Nc2ccc(Sc3ccc(N)cc3)cc2)cc1` [Compound II, N-[4-(4-amino-phenylsulfanyl)-phenyl]-4-(4-methoxy-benzenesulfonylamino)-butyramide], the “tBID-induced Smac release from mitochondria isolated from HeLa cells” value on tBID [1] is listed as “block”. On tBID [1] (50 μM compound, isolated mitochondria), this compound had an inhibition at 50 µM of 100%. Also, the “reduction of tBID-induced Smac release” value on tBID [1] (50 μM, 100 ng tBID, mitochondria isolated from HeLa cells) is recorded as “significantly reduce”. The “decrease of Smac release, dose experiment” value on tBID [1] (at concentrations as low as 20 μM) is given as “dramatically decreased”. Moreover, the “binding to BCL-XL” value on BCL-XL is “does not bind appreciably; also recorded: did not show appreciable binding”. Further, the “binding to tBID compared with full-length BID” value on tBID [2] is reported as “binding even better”.
For the compound `Nc1ccc(Sc2ccc(NC(=O)CNC(=O)c3ccc(O)cc3O)cc2)cc1` [Compound I, N-((4-(4-aminophenylthio)phenylcarbamoyl)methyl)-2,4-dihydroxybenzamide], the “tBID-induced Smac release from mitochondria isolated from HeLa cells” value at tBID [1] is reported as “block”. Further, the “binding to BCL-XL” value on BCL-XL was “did not show appreciable binding”. Besides, on tBID [2], the “binding to tBID compared with full-length BID” value is “higher affinity”.
